Data: US11130793B2, “GLP-1/GLP-2 dual agonists” (Zealand Pharma A/S, priority 2016, dated 2021)
Like-named read-outs stand apart in the source and are kept apart here. Square brackets hold non-standard residues; d marks the D form. Peptide text beside a SMILES is read from it. Aib = CC(C)(N)C(=O)O

What was measured:
human GLP-1 receptor = target: T1, human GLP-1 receptor (Homo sapiens, UniProt P43220); experiment: GLP-1 receptor potency assay (cAMP AlphaScreen, HEK293 cells stably expressing GLP-1R); type: cell-based; conditions: cAMP response, HEK293 cells expressing human GLP-1R; read-out: EC50 GLP-1
T1 construct: expressed in transfected cells
T1 sequence (P43220 24-463): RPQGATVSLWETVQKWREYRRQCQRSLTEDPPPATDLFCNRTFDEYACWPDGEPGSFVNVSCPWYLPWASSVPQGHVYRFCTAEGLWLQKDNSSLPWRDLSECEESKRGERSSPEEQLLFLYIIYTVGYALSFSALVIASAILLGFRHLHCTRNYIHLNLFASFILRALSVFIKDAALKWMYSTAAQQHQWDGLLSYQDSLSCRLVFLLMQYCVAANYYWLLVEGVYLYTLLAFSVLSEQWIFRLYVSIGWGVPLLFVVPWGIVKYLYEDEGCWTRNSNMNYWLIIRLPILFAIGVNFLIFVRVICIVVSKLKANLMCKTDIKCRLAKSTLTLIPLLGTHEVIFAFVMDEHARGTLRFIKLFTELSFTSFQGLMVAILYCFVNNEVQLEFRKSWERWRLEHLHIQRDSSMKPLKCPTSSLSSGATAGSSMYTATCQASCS
Summary of the method: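 A HEK293 clone stably expressing cloned human GLP-1R (G418-selected) was stimulated with compound. Intracellular cAMP was measured by AlphaScreen. Responses were normalized to positive and vehicle controls, and EC50 and maximal response were fitted by 4-parameter logistic regression.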

human GLP-2 receptor = target: T2, human GLP-2 receptor (Homo sapiens, UniProt O95838, D470N); experiment: GLP-2 receptor potency assay (cAMP AlphaScreen, HEK293 cells stably expressing GLP-2R); type: cell-based; conditions: cAMP response, HEK293 cells expressing human GLP-2R
T2 sequence (O95838 1-553 D470N): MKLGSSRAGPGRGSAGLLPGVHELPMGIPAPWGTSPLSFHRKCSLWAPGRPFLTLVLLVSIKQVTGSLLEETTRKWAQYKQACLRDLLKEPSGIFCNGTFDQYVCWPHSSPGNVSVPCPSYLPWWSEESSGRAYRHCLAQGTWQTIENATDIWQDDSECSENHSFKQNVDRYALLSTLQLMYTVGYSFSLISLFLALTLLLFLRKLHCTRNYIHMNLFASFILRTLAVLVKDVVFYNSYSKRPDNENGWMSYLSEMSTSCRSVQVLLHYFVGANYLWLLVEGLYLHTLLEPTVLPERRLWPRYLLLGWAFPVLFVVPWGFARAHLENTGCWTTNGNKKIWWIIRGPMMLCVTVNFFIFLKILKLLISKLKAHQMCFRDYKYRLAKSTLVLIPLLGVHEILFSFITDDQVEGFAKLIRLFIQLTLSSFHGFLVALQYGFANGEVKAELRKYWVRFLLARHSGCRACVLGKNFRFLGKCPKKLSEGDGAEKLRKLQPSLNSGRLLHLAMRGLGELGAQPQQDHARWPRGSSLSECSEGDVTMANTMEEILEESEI
Summary of the method: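 HEK293 cells stably expressing human GLP-2R (G418-selected clone); intracellular cAMP measured by AlphaScreen. Responses normalized to positive and vehicle controls; EC50 and maximal response from 4-parameter logistic fit.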

[1] = Solubility assessment by turbidity absorbance at 325 nm; type: physicochemical; conditions: 1 mg/ml peptide
Protocol: A stock solution of the test peptide (2 mg/ml; determined from the weighed amount of peptide) in demineralized water adjusted to pH 2.5 with HCl was prepared, and aliquots were diluted 1:1 in 100 mM acetate buffer (pH 4.0 and pH 5.0), 100 mM histidine buffer (pH 6.0 and pH 7.0) and 100 mM phosphate buffer (pH 6.0, pH 7.0 and pH7.5), respectively, and loaded in a standard flat-bottom, non-sterile 96-well UV Microplate. The absorbance of samples (single samples, n=1) at 280 and 325 nm was measured in an absorbance-based plate reader, which was preheated to ambient temperature (typically 25° C.).

[2] = 100 mM acetate buffer pH 4.0, ambient temperature, read-out: Solubility, Acetate buffer pH 4
[3] = 100 mM acetate buffer pH 5.0, ambient temperature, read-out: Solubility, Acetate buffer pH 5
[4] = 100 mM histidine buffer pH 6.0, ambient temperature, read-out: Solubility, Histidine buffer pH 6
[5] = 100 mM histidine buffer pH 7.0, ambient temperature, read-out: Solubility, Histidine buffer pH 7
[6] = 100 mM phosphate buffer pH 6.0, ambient temperature, read-out: Solubility, Phosphate buffer pH 6
[7] = 100 mM phosphate buffer pH 7.0, ambient temperature, read-out: Solubility, Phosphate buffer pH 7
[8] = 100 mM phosphate buffer pH 7.5, ambient temperature, read-out: Solubility, Phosphate buffer pH 7.5

EC50 (human GLP-1 receptor) [nM]	EC50 (human GLP-2 receptor) [nM]	solubility [1, 2] [µg/mL]	solubility [1, 3] [µg/mL]	solubility [1, 4] [µg/mL]	solubility [1, 5] [µg/mL]	solubility [1, 6] [µg/mL]	solubility [1, 7] [µg/mL]	solubility [1, 8] [µg/mL]	SMILES
0.014	0.047	≥ 1000	< 1000	< 1000	≥ 1000	< 1000	≥ 1000	< 1000	CC[C@H](C)[C@H](NC(=O)[C@H](Cc1ccccc1)NC(=O)[C@H](CC(=O)O)NC(=O)[C@H](CCCNC(=N)N)NC(=O)[C@H](C)NC(=O)[C@H](C)NC(=O)[C@H](CCC(N)=O)NC(=O)[C@H](CCC(=O)O)NC(=O)[C@H](CC(=O)O)NC(=O)[C@H](CC(C)C)NC(=O)[C@@H](NC(=O)[C@@H](NC(=O)[C@H](C)NC(=O)[C@H](CC(C)C)NC(=O)[C@H](CCC(=O)O)NC(=O)[C@H](CO)NC(=O)[C@@H](NC(=O)[C@H](Cc1ccccc1)NC(=O)[C@H](CO)NC(=O)CNC(=O)[C@H](CCC(=O)O)NC(=O)C(C)(C)NC(=O)[C@@H](N)Cc1c[nH]cn1)[C@@H](C)O)[C@@H](C)O)[C@@H](C)CC)C(=O)N[C@@H](C)C(=O)N[C@@H](Cc1c[nH]c2ccccc12)C(=O)N[C@@H](CC(C)C)C(=O)N[C@H](C(=O)N[C@@H](Cc1c[nH]cn1)C(=O)N[C@@H](Cc1c[nH]cn1)C(=O)N[C@@H](CCCCN)C(=O)N[C@H](C(=O)N[C@H](C(=O)N[C@@H](CC(=O)O)C(=O)O)[C@@H](C)O)[C@@H](C)CC)[C@@H](C)CC [Compound 6] (H-H[Aib]EGSFTSELATILDEQAARDFIAWLIHHKITD-OH)
0.021	0.084	≥ 1000	< 1000	< 1000	≥ 1000	< 1000	≥ 1000	≥ 1000	CC[C@H](C)[C@H](NC(=O)[C@H](Cc1ccccc1)NC(=O)[C@H](CC(=O)O)NC(=O)[C@H](CCCNC(=N)N)NC(=O)[C@H](C)NC(=O)[C@H](C)NC(=O)[C@H](CCC(N)=O)NC(=O)[C@H](CCC(=O)O)NC(=O)[C@H](CC(=O)O)NC(=O)[C@H](CC(C)C)NC(=O)[C@@H](NC(=O)[C@@H](NC(=O)[C@H](C)NC(=O)[C@H](CC(C)C)NC(=O)[C@H](CCC(=O)O)NC(=O)[C@H](CO)NC(=O)[C@@H](NC(=O)[C@H](Cc1ccccc1)NC(=O)[C@H](CO)NC(=O)CNC(=O)[C@H](CCC(=O)O)NC(=O)C(C)(C)NC(=O)[C@@H](N)Cc1c[nH]cn1)[C@@H](C)O)[C@@H](C)O)[C@@H](C)CC)C(=O)N[C@@H](C)C(=O)N[C@@H](Cc1c[nH]c2ccccc12)C(=O)N[C@@H](CC(C)C)C(=O)N[C@H](C(=O)N[C@@H](CC(C)C)C(=O)N[C@@H](Cc1c[nH]cn1)C(=O)N[C@@H](CCCCN)C(=O)N[C@H](C(=O)N[C@H](C(=O)N[C@@H](CC(=O)O)C(=O)O)[C@@H](C)O)[C@@H](C)CC)[C@@H](C)CC [Compound 8] (H-H[Aib]EGSFTSELATILDEQAARDFIAWLILHKITD-OH)
0.015	0.044	≥ 1000	< 1000	≥ 1000	≥ 1000	≥ 1000	≥ 1000	≥ 1000	CC[C@H](C)[C@H](NC(=O)[C@H](Cc1ccccc1)NC(=O)[C@H](CC(=O)O)NC(=O)[C@H](CCCNC(=N)N)NC(=O)[C@H](C)NC(=O)[C@H](C)NC(=O)[C@H](CCC(N)=O)NC(=O)[C@H](CCC(=O)O)NC(=O)[C@H](CC(=O)O)NC(=O)[C@H](CC(C)C)NC(=O)[C@@H](NC(=O)[C@@H](NC(=O)[C@H](C)NC(=O)[C@H](CC(C)C)NC(=O)[C@H](CCC(=O)O)NC(=O)[C@H](CO)NC(=O)[C@@H](NC(=O)[C@H](Cc1ccccc1)NC(=O)[C@H](CO)NC(=O)CNC(=O)[C@H](CCC(=O)O)NC(=O)C(C)(C)NC(=O)[C@@H](N)Cc1c[nH]cn1)[C@@H](C)O)[C@@H](C)O)[C@@H](C)CC)C(=O)N[C@@H](C)C(=O)N[C@@H](Cc1c[nH]c2ccccc12)C(=O)N[C@@H](CC(C)C)C(=O)N[C@H](C(=O)N[C@@H](CCC(=O)O)C(=O)N[C@@H](Cc1c[nH]cn1)C(=O)N[C@@H](CCCCN)C(=O)N[C@H](C(=O)N[C@H](C(=O)N[C@@H](CC(=O)O)C(=O)O)[C@@H](C)O)[C@@H](C)CC)[C@@H](C)CC [Compound 4] (H-H[Aib]EGSFTSELATILDEQAARDFIAWLIEHKITD-OH)
0.0074	0.036	≥ 1000	< 1000	≥ 1000	≥ 1000	≥ 1000	≥ 1000	≥ 1000	CC[C@H](C)[C@H](NC(=O)[C@H](CC(C)C)NC(=O)[C@H](Cc1c[nH]c2ccccc12)NC(=O)[C@H](C)NC(=O)[C@@H](NC(=O)[C@H](Cc1ccccc1)NC(=O)[C@H](CC(=O)O)NC(=O)[C@H](CCCNC(=N)N)NC(=O)[C@H](C)NC(=O)[C@H](C)NC(=O)[C@H](CCC(N)=O)NC(=O)[C@H](CCC(=O)O)NC(=O)[C@H](CC(=O)O)NC(=O)[C@H](CC(C)C)NC(=O)[C@@H](NC(=O)[C@@H](NC(=O)[C@H](C)NC(=O)[C@H](CC(C)C)NC(=O)[C@H](CCC(=O)O)NC(=O)[C@H](CO)NC(=O)[C@@H](NC(=O)[C@H](Cc1ccccc1)NC(=O)[C@@H](NC(=O)CNC(=O)[C@H](CCC(=O)O)NC(=O)C(C)(C)NC(=O)[C@@H](N)Cc1c[nH]cn1)[C@@H](C)O)[C@@H](C)O)[C@@H](C)O)[C@@H](C)CC)[C@@H](C)CC)C(=O)N[C@@H](C)C(=O)N[C@@H](Cc1c[nH]cn1)C(=O)N[C@@H](CCCCN)C(=O)N[C@H](C(=O)N[C@H](C(=O)N[C@@H](CC(=O)O)C(=O)O)[C@@H](C)O)[C@@H](C)CC [Compound 3] (H-H[Aib]EGTFTSELATILDEQAARDFIAWLIAHKITD-OH)
0.017	0.11	≥ 1000	< 1000	< 1000	≥ 1000	< 1000	≥ 1000	≥ 1000	CC[C@H](C)[C@H](NC(=O)[C@H](Cc1ccccc1)NC(=O)[C@H](CC(=O)O)NC(=O)[C@H](CCCNC(=N)N)NC(=O)[C@H](C)NC(=O)[C@H](C)NC(=O)[C@H](CCC(N)=O)NC(=O)[C@H](CCC(=O)O)NC(=O)[C@H](CC(=O)O)NC(=O)[C@H](CC(C)C)NC(=O)[C@@H](NC(=O)[C@@H](NC(=O)[C@H](C)NC(=O)[C@H](CC(C)C)NC(=O)[C@H](CCC(=O)O)NC(=O)[C@H](CO)NC(=O)[C@@H](NC(=O)[C@H](Cc1ccccc1)NC(=O)[C@H](CO)NC(=O)CNC(=O)[C@H](CCC(=O)O)NC(=O)C(C)(C)NC(=O)[C@@H](N)Cc1c[nH]cn1)[C@@H](C)O)[C@@H](C)O)[C@@H](C)CC)C(=O)N[C@@H](C)C(=O)N[C@@H](Cc1c[nH]c2ccccc12)C(=O)N[C@@H](CC(C)C)C(=O)N[C@H](C(=O)N[C@@H](Cc1ccc(O)cc1)C(=O)N[C@@H](Cc1c[nH]cn1)C(=O)N[C@@H](CCCCN)C(=O)N[C@H](C(=O)N[C@H](C(=O)N[C@@H](CC(=O)O)C(=O)O)[C@@H](C)O)[C@@H](C)CC)[C@@H](C)CC [Compound 7] (H-H[Aib]EGSFTSELATILDEQAARDFIAWLIYHKITD-OH)
0.049	0.11								CC[C@H](C)[C@H](NC(=O)[C@H](Cc1ccccc1)NC(=O)[C@H](CC(=O)O)NC(=O)[C@H](CCCNC(=N)N)NC(=O)[C@H](C)NC(=O)[C@H](C)NC(=O)[C@H](CCC(N)=O)NC(=O)[C@H](CCC(=O)O)NC(=O)[C@H](CC(=O)O)NC(=O)[C@H](CC(C)C)NC(=O)[C@@H](NC(=O)[C@@H](NC(=O)[C@H](C)NC(=O)[C@H](CC(C)C)NC(=O)[C@H](CCC(=O)O)NC(=O)[C@H](CO)NC(=O)[C@@H](NC(=O)[C@H](Cc1ccccc1)NC(=O)[C@@H](NC(=O)CNC(=O)[C@H](CCC(=O)O)NC(=O)C(C)(C)NC(=O)[C@@H](N)Cc1c[nH]cn1)[C@@H](C)O)[C@@H](C)O)[C@@H](C)O)[C@@H](C)CC)C(=O)N[C@@H](C)C(=O)N[C@@H](Cc1c[nH]c2ccccc12)C(=O)N[C@@H](CC(C)C)C(=O)N[C@@H](Cc1c[nH]cn1)C(=O)N[C@@H](CCC(N)=O)C(=O)N[C@@H](Cc1c[nH]cn1)C(=O)N[C@@H](CCCCN)C(=O)N[C@H](C(=O)N[C@H](C(=O)N[C@@H](CC(=O)O)C(=O)O)[C@@H](C)O)[C@@H](C)CC [Compound 21] (H-H[Aib]EGTFTSELATILDEQAARDFIAWLHQHKITD-OH)
